Measured values taken from PubChem BioAssay (NCI).
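Growth conditions: 96-well plates. Treatment: test compound, 48 hours, 5 concentrations. Analysis: linear interpolation between bracketing concentrations; unreached endpoints set to highest concentration. Here, GI50 denotes the concentration required for 50% inhibition of growth. TGI is the concentration that stops growth completely.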

Assays:
Assay in all cases: inhibition of tumour cell growth, NCI panel, 48 h
SW-620 colon = test system: SW-620 colon
SF-268 CNS = test system: SF-268 CNS
IGROV1 ovarian = test system: IGROV1 ovarian
U251 CNS = test system: U251 CNS
OVCAR-8 ovarian = test system: OVCAR-8 ovarian
EKVX NSCLC = test system: EKVX NSCLC
SN12C renal = test system: SN12C renal
M14 melanoma = test system: M14 melanoma
MALME-3M melanoma = test system: MALME-3M melanoma
CCRF-CEM leukemia = test system: CCRF-CEM leukemia

SMILES | GI50 (SW-620 colon) | TGI (SW-620 colon) | GI50 (SF-268 CNS) | TGI (SF-268 CNS) | GI50 (IGROV1 ovarian) | TGI (IGROV1 ovarian) | GI50 (U251 CNS) | TGI (U251 CNS) | GI50 (OVCAR-8 ovarian) | TGI (OVCAR-8 ovarian) | GI50 (EKVX NSCLC) | TGI (EKVX NSCLC) | GI50 (SN12C renal) | TGI (SN12C renal) | GI50 (M14 melanoma) | TGI (M14 melanoma) | GI50 (MALME-3M melanoma) | TGI (MALME-3M melanoma) | GI50 (CCRF-CEM leukemia) | TGI (CCRF-CEM leukemia)
COc1cc(-c2nccc3cc4c(cc23)OCO4)cc(OC)c1OC | 2.77 µM | > 100 µM | 5.56 µM | > 100 µM | 8.92 µM | > 100 µM | 4.86 µM | > 100 µM | 7.08 µM | > 100 µM | 7.1 µM | > 100 µM | 7.64 µM | > 100 µM | 3.36 µM | 23.2 µM | 26.9 µM | > 100 µM | – | –
COc1cc(CN(c2ccc(C)cc2)C2OC(=O)c3ccccc32)cc(OC)c1OC (centres undefined) | – | – | 1.97 µM | > 100 µM | 1.29 µM | > 100 µM | 0.397 µM | > 100 µM | – | – | 0.647 µM | > 100 µM | 0.854 µM | > 100 µM | 0.43 µM | > 100 µM | – | > 100 µM | 0.375 µM | > 100 µM
C=C1C(=O)O[C@H]2[C@H]1CC/C(COC(=O)NCCc1cccc(OC)c1)=C\CC[C@@]1(C)O[C@@H]21 | 0.502 µM | 2.01 µM | 1.78 µM | 4.91 µM | 1.26 µM | 3.05 µM | – | – | 2.26 µM | 8.03 µM | 1.78 µM | 4.25 µM | – | – | 1.29 µM | 2.92 µM | 1.84 µM | 3.61 µM | 0.34 µM | 1.93 µM
Cc1cccc(Nc2cc(Cl)nc(SCC(=O)O)n2)c1C | – | > 100 µM | – | – | – | > 100 µM | – | > 100 µM | – | > 100 µM | – | > 100 µM | – | > 100 µM | – | > 100 µM | – | > 100 µM | – | > 100 µM
Cc1cn2c(/C=N/N=C(N)N)c(-c3ccncc3)nc2s1 | 18.9 µM | 33.8 µM | 16.7 µM | 30.7 µM | 22.1 µM | 49.2 µM | 17.8 µM | 31.6 µM | 14.7 µM | 30.9 µM | 12.5 µM | 26.8 µM | 32.7 µM | 69.7 µM | 16.7 µM | 30.3 µM | – | – | 7.16 µM | 22.4 µM
C=C(CO)CC(/C=C(\C)CC/C=C(\C)CCl)OC(C)=O (centres undefined) | – | > 100 µM | – | > 100 µM | – | > 100 µM | – | > 100 µM | – | > 100 µM | – | > 100 µM | – | > 100 µM | – | > 100 µM | – | – | – | > 100 µM
S=C(CSc1ccccc1)Nc1cccc2ccccc12 | – | > 100 µM | – | > 100 µM | – | > 100 µM | – | > 100 µM | – | > 100 µM | – | > 100 µM | – | > 100 µM | – | > 100 µM | – | > 100 µM | – | –
CCC[CH2][Sn]([CH2]CCC)([O]C(=O)c1cccc(F)c1F)[O]C(=O)c1cccc(F)c1F | 0.472 µM | 1.67 µM | 0.838 µM | 2.15 µM | 1.4 µM | 2.76 µM | 0.675 µM | 1.93 µM | 1.3 µM | 2.57 µM | 1.41 µM | 2.71 µM | 1.19 µM | 2.44 µM | 1.4 µM | 2.77 µM | 0.585 µM | 1.89 µM | – | –
COc1ccc(-c2nc(N)c(C#N)c3c2CCOc2c-3ccc3ccccc23)cc1 | – | – | 11.1 µM | 39.8 µM | – | – | 14 µM | 34.4 µM | 23.3 µM | 58 µM | – | – | 21 µM | 76.5 µM | 66.6 µM | > 100 µM | 15.2 µM | 50.1 µM | > 100 µM | > 100 µM
Cn1cc(C2=C(c3ccccc3C(F)(F)F)C(=O)NC2=O)c2ccccc21 | 10.2 µM | > 25 µM | 11.4 µM | > 25 µM | 13.2 µM | > 25 µM | 7.06 µM | > 25 µM | 10.4 µM | > 25 µM | – | – | 9.73 µM | > 25 µM | 19.8 µM | > 25 µM | > 18.5 µM | > 25 µM | 4.86 µM | > 25 µM
O=c1c2cccnc2ncn1CCCN1CCCC1 | – | > 100 µM | – | > 100 µM | – | > 100 µM | – | > 100 µM | – | > 100 µM | – | > 100 µM | – | > 100 µM | – | > 100 µM | – | – | – | > 100 µM
CCC[CH2][Sn]([CH2]CCC)([CH2]CCC)[O]C(=O)C(OC)c1ccccc1 (centres undefined) | 0.112 µM | 0.236 µM | 0.112 µM | 0.327 µM | 0.13 µM | 0.295 µM | 0.106 µM | 0.225 µM | 0.141 µM | 0.272 µM | 0.0277 µM | 0.228 µM | 0.117 µM | 0.24 µM | 0.133 µM | 0.263 µM | 0.112 µM | 0.234 µM | – | –
COC(=O)/C(=C/c1ccc(OC)cc1)C(C(=O)O)=C1CCCCC1 | – | > 100 µM | – | – | – | > 100 µM | – | > 100 µM | – | > 100 µM | – | > 100 µM | – | > 100 µM | – | > 100 µM | – | – | – | > 100 µM
COc1cc2c(c(OC)c1OC)-c1ccc(SC)c(=O)cc1C(CC(=O)Oc1cccc(F)c1)C2 (centres undefined) | – | > 100 µM | – | > 72.5 µM | – | > 100 µM | – | 0.85 µM | – | – | – | > 100 µM | – | 16.6 µM | – | – | – | > 100 µM | – | > 31.9 µM
COc1cc(Nc2ncnc(Nc3ccc4c(n3)NC(=O)C(C)(C)O4)n2)cc(OC)c1OC | 2.73 µM | > 100 µM | 0.544 µM | > 100 µM | 0.247 µM | 1.72 µM | 1.5 µM | > 100 µM | 10.9 µM | > 100 µM | – | – | 0.411 µM | > 100 µM | 5.15 µM | > 100 µM | 8.69 µM | > 100 µM | 3.73 µM | > 100 µM
C=Cc1c(C)c2cc3[nH]c(cc4nc(cc5nc(cc1[nH]2)C(C)=C5CCC(=O)N(CC)CC)C(CCC(=O)N(CC)CC)=C4C)c(C)c3C=C | – | > 100 µM | – | – | – | > 100 µM | – | > 100 µM | – | > 100 µM | – | > 100 µM | – | > 100 µM | – | > 100 µM | – | > 100 µM | – | > 100 µM
